Data: patent US20250057756A1, “FORMULATIONS AND DOSES OF PEGYLATED URICASE” (Cartesian Therapeutics, Inc., priority 2016, published 2025)
Where “and” joins values, the source holds several entries; their conditions need not be identical. Identical values can stand only once. Like-named read-outs stand apart in the source and are kept apart here.

Columns and labels:
[1] = cited from earlier work; for subjects requiring treatment for at least one gout flare: first 8 weeks, with gout flare prophylaxis
serum uric acid (SUA) = conditions: cited from earlier work
[2] = cited from earlier work; for patients with gout flares requiring treatment in a month: colchicine prophylaxis
[3] = cited from earlier work; for flares per patient over the first 3 months: Phase 3; for Flares per patient month: Phase 3 trials
ADAs = conditions: all KRYSTEXXA-treated subjects; cited from earlier work
uric acid [4] = conditions: cited from earlier work; for mean uric acid levels at four weeks: monthly dosing
uricase specific ADAs [5] = assay: Uricase specific ADA formation in uricase deficient mice; type: in vivo; conditions: treated days 0, 7 and 14, pegsiticase alone challenge days 35 and 42
Method: (§1) A pharmacology study in mice that were genetically deficient in endogenous uricase was conducted. The study evaluated the efficacy of a dose regimen consisting of three immunizations with SEL 212 followed by doses of pegsiticase alone in preventing the formation of ADAs to pegsiticase. The treatment period consisted of the first 14 days of the study. In the study, mice were separated into three treatment groups. During the treatment period: • the first group, referred to as the Untreated Group, received no treatment; • the second group, referred to as the Pegsiticase Group, was treated with pegsiticase alone; and • the third group, referred to as the SVP Rapamycin+Pegsiticase Group, was treated with SVP Rapamycin co administered with pegsiticase.
(§2) The Pegsiticase Group and SVP Rapamycin+Pegsiticase Group were treated on days zero, seven and 14 of the treatment period. Each group was then treated with pegsiticase alone on days 35 and 42 of the study, or the challenge period. Uricase specific ADA levels were recorded to determine the formation of ADAs to pegsiticase. Uric acid levels were measured to determine effectiveness of SVP Rapamycin co administered with pegsiticase in lowering uric acid levels below 6 mg/dl, which is the treatment target for gout patients.

uricase specific ADAs [6] = assay: Phase 1a clinical trial: uricase specific ADAs; type: in vivo, human; conditions: single infusion; varying levels
Method: (§3) The Phase 1a clinical trial for SEL 212 was an ascending dose trial of pegsiticase alone in 22 subjects with elevated serum uric acid levels greater than 6 mg/dl who were separated into five cohorts. Each cohort received a single intravenous infusion of pegsiticase at the following dose levels of 0.1 mg/kg for Cohort #1, 0.2 mg/kg for Cohort #2, 0.4 mg/kg for Cohort #3, 0.8 mg/kg for Cohort #4 and 1.2 mg/kg for Cohort #5. Dosing began with the lowest dose and only after an entire cohort was safely dosed was the next cohort started. The subjects were monitored during a 30 day period post infusion with visits occurring on day 7, 14,21 and the end of trial visit on day 30. Blood and serum of each patient was evaluated for serum uric acid, ADAs (specifically anti-peg, anti-uricase and anti-pegsiticase) and safety parameters.
The serum uric acid levels were measured at baseline and days seven, 14, 21 and 30 and uricase specific ADA levels at baseline and days seven, 14 and 30 following a single intravenous injection of pegsiticase. Uricase specific ADA levels at day 21 in the Phase 1a clinical trial were not measured. […]

[7] = Phase 1a clinical trial: safety; type: in vivo, human; conditions: single intravenous infusion, five dose levels 0.1-1.2 mg/kg
Method: as §3

uricase specific ADAs [8] = assay: Phase 1b clinical trial: uricase specific ADAs; type: in vivo, human; conditions: pegsiticase alone 0.4 mg/kg, Cohort #3 Phase 1a and Cohort #9 Phase 1b; resulting in return to baseline serum uric acid
Method: (§4) The Phase 1b clinical trial enrolled 63 patients with serum uric acid levels greater than 6 mg/dl separated into 11 cohorts. A single intravenous infusion of SVP Rapamycin alone at the following ascending dose levels was administered to four cohorts in ascending order. Each cohort consisted of seven patients and were designated as follows: Cohort #1 (0.03 mg/kg), Cohort #3 (0.1 mg/kg), Cohort #5 (0.3 mg/kg) and Cohort #7 (0.5 mg/kg) collectively the SVP Rapamycin Cohorts. After a cohort of the SVP-Rapamycin alone had successfully and safely been dosed the corresponding dose level of SVP Rapamycin was combined with a fixed dose of pegsiticase (0.4 mg/kg). The combination was co-administered sequentially as a single intravenous infusion, with the SVP Rapamycin infusion preceding the pegsiticase infusion. […] The subjects were monitored during a 30 day period post infusion with visits occurring on day 7, 14,21 and the end of trial visit on day 30. Blood and serum of each patient was evaluated for serum uric acid, ADAs (specifically anti-PEG, anti-uricase and anti-pegsiticase) and safety parameters. […]
In the Phase 1a clinical trial, uricase specific ADA levels at day 21 was not measured. […] As a result, for the Phase 1b clinical trial, uricase specific ADA levels at day 21 were monitored.

[9] = Gout flare in first month, pegsiticase alone (Phase 1, Table 1); type: in vivo, human
Method: as §3
When pegsiticase was administered alone in the Phase 1 described in Example 2, 57% (4 out of 7 patients) of those with a history of gout had signs of gout flare in the first month after receiving the study drug (Table 1). […] This subject was in the cohort that received only the rapamycin-comprising nanocarrier (without uricase). […] The flare was, therefore, unrelated to a change in serum uric acid. […] This patient's serum uric acid level dropped from 8.8 mg/dL to 0.1 mg/dL within 90 minutes following drug administration. So, although this subject had only been diagnosed with asymptomatic hyperuricemia before the study, a flare did seem to coincide with a drop in serum uric acid.

serum uric acid [10] = assay: Phase 1b clinical trial: serum uric acid; type: in vivo, human
Method: as §4

[11] = Phase 1a and Phase 1b clinical trials: safety and tolerability; type: in vivo, human; conditions: 85 subjects dosed in Phase 1a and Phase 1b
Method: as §3
The Phase 1b clinical trial enrolled 63 patients with serum uric acid levels greater than 6 mg/dl separated into 11 cohorts. A single intravenous infusion of SVP Rapamycin alone at the following ascending dose levels was administered to four cohorts in ascending order. […] The subjects were monitored during a 30 day period post infusion with visits occurring on day 7, 14,21 and the end of trial visit on day 30. Blood and serum of each patient was evaluated for serum uric acid, ADAs (specifically anti-PEG, anti-uricase and anti-pegsiticase) and safety parameters. […]

serum uric acid [12] = assay: Phase 1a clinical trial: serum uric acid; type: in vivo, human
Method: as §3
FIG. 4 depicts average serum uric acid levels of the Phase 1a clinical trial's five cohorts tested at different measurement intervals (Day 7, 14, 21 and 30) during the course of the 30 day period following the single intravenous infusion of pegsiticase at the outset of the trial.
The serum uric acid levels were measured at baseline and days seven, 14, 21 and 30 and uricase specific ADA levels at baseline and days seven, 14 and 30 following a single intravenous injection of pegsiticase. Uricase specific ADA levels at day 21 in the Phase 1a clinical trial were not measured. Based on the results from the Phase 1a clinical trial, it was observed that pegsiticase at a tolerated dose is capable of achieving and maintaining a reduction of serum uric acid below the target of 6 mg/dl for a 30 day period in the absence of inhibitory uricase specific ADAs.

uric acid [13] = assay: Uric acid levels in uricase deficient mice; type: in vivo
Method: as §1, §2

Cc1nc(-c2ccc(OCC(C)C)c(C#N)c2)sc1C(=O)O [Febuxostat, febuxostat]
Flares per patient month ([1]; 80 mg/day): 0.77 flares per patient month
subjects requiring treatment for at least one gout flare ([1]; 80 mg/day): 55 out of 255
Flares per patient month ([1]; 80 mg/day, listed as febuxostat): at least 0.22 flares per patient month
Flares per patient month ([1]; 120 mg/day): 0.36 flares per patient month
subjects requiring treatment for at least one gout flare ([1]; 120 mg/day): 90 out of 250
Flares per patient month ([1]; 120 mg/day, listed as febuxostat): ≥ 0.36 flares per patient month

O=C(O)CSc1nnc(Br)n1-c1ccc(C2CC2)c2ccccc12 [Lesinurad, lesinurad]
Time of efficacy (area under curve of mean sUA levels over time) (serum uric acid (SUA); Lesinurad 200 mg/day): 158.5
Time of efficacy (area under curve of mean sUA levels over time) (serum uric acid (SUA); Lesinurad 400 mg/day): 165.8
Time of efficacy (area under curve of mean sUA levels over time) (serum uric acid (SUA); Lesinurad 600 mg/day): 167.5
patients with gout flares requiring treatment in a month ([2]; 200 mg daily): 10 out of 46
Flares per patient month ([2]; 200 mg/day): 0.22 flares per patient month
patients with gout flares requiring treatment in a month ([2]; 400 mg daily): 13 out of 42
Flares per patient month ([2]; 400 mg/day): 0.31 flares per patient month
patients with gout flares requiring treatment in a month ([2]; 600 mg daily): 15 out of 48
Flares per patient month ([2]; 600 mg/day): 0.31 flares per patient month

Pegloticase
Time of efficacy (area under curve of mean sUA levels over time) (serum uric acid (SUA); Pegloticase biweekly, Nonresponders): Nonresponders-84.35
Time of efficacy (area under curve of mean sUA levels over time) (serum uric acid (SUA); Pegloticase biweekly, Responders): Responders-26.6
Time of efficacy (area under curve of mean sUA levels over time) (serum uric acid (SUA); Pegloticase monthly, Nonresponders): Nonresponders-99.75
Time of efficacy (area under curve of mean sUA levels over time) (serum uric acid (SUA); Pegloticase monthly, Responders): Responders-53.55
flares per patient over the first 3 months ([3]; biweekly pegloticase, 85 patients): 2.3
flares per patient over the first 3 months ([3]; monthly pegloticase, 84 patients): 2.7
Flares per patient month ([3]; pegloticase biweekly): 0.77 flares per patient month
Flares per patient month ([3]; pegloticase monthly): 0.90 flares per patient month
Flares per patient month ([3]; pegloticase monthly, listed as pegloticase): 0.9 flares per patient month
study subjects reporting one or more flares ([3]; phase 2 trial, three-month study): 88%
patients with gout flares in the first 3 months ([3]; two phase 3 trials, despite gout flare prophylaxis (colchicine or NSAIDs)): about 80%
treated subjects that developed ADAs (ADAs): 89%
non-responders, share of subjects (uric acid [4]; monthly dosing cohorts): 65%
subjects classified as responders (uric acid below 6 mg/dl for 80% of the time at months three and six) (uric acid [4]; monthly dosing cohorts): 35%
mean uric acid levels at four weeks (uric acid [4]; non-responders): above 6 mg/dl
mean uric acid levels at four weeks (uric acid [4]; responders): above 4 mg/dl

Recombinant Pegylated Candida Urate Oxidase [pegsiticase]
uricase specific ADA formation (uricase specific ADAs [5]): developed uricase specific ADAs
uricase specific ADAs (uricase specific ADAs [6]): induced uricase specific ADAs in all subjects
serious adverse events [7]: no serious adverse events
tolerability [7]: well tolerated
uricase specific ADA formation (uricase specific ADAs [8]): uricase specific ADA formation at day 14
Flare in 1st month ([9]; individual subject with history of gout, SEL-037 0.8 mg/kg): no
Flare in 1st month ([9]; individual subjects with history of gout, SEL-037 0.1 mg/kg, 0.1 mg/kg): no and yes (2×) and yes (positive for
Flare in 1st month ([9]; individual subjects with history of gout, SEL-037 0.2 mg/kg, 0.2 mg/kg): no and yes (mild gout, right
subjects with a history of gout with signs of gout flare in the first month ([9]; pegsiticase alone, Phase 1, 4 out of 7 patients): 57%
subjects returned to baseline serum uric acid levels by day 30 (serum uric acid [10]; Cohort #9: pegsiticase alone 0.4 mg/kg): four of the five
serum uric acid levels (serum uric acid [10]; pegsiticase alone 0.4 mg/kg, Cohort #3 Phase 1a and Cohort #9 Phase 1b, initial control, enzyme activity lost past day 14): below 6 mg/dL
tolerability [11]: well tolerated
time average serum uric acid levels sustained below 6 mg/dl (serum uric acid [12]; each cohort, depending on the dose level): 14 to 30 days
time within which serum uric acid levels dropped significantly (serum uric acid [12]; single intravenous infusion, all 22 subjects): approximately 10 hours
time after dosing by which serum uric acid levels rebounded (serum uric acid [12]; single intravenous infusion, majority of patients): 14 to 21 days
uric acid levels (uric acid [13]; after the first dose in the treatment period): below 6 mg/dl
uric acid levels (uric acid [13]; subsequent doses in the treatment period and challenge period): > 6 mg/dL
